Data taken from patent US5428139A, “Bicyclopolyazamacrocyclophosphonic acid complexes for use as radiopharmaceuticals” (The Dow Chemical Company, priority 1991, dated 1995).

Key:
[1] = Biodistribution: percent of injected dose in tissues; format: in vivo, Sprague Dawley rats; conditions: for % injected dose in bone: 100 μl complex i.v. via tail vein, bone estimated as femur x 25; for % injected dose in blood: blood assumed 7% of body weight; for % injected dose in muscle: muscle assumed 43% of body weight
Method: Sprague Dawley rats were allowed to acclimate for five days then injected with 100 μl of the complex solution via a tail vein. The rats weighed between 150 and 200 g at the time of injection. After 30 min. the rats were killed by cervical dislocation and dissected. The amount of radioactivity in each tissue was determined by counting in a NaI scintillation counter coupled to a multichannel analyzer. The counts were compared to the counts in 100 μl standards in order to determine the percentage of the dose in each tissue or organ.
The percent dose in blood was estimated assuming blood to be 7% of the body weight. The percent dose in bone was estimated by multiplying the percent dose in the femur by 25. The percent dose in muscle was estimated assuming muscle to be 43% of the body weight.

[2] = Percent metal as a complex (Sephadex column, ion exchange method); format: physicochemical; conditions: 1:1 ligand/metal, eluted with 4:1 saline (0.85% NaCl/NH4 OH)
Method: A stock ^153 SmCl3 solution was prepared by adding 2 μL of 3×10^-4 M ^153 SmCl3 in 0.1N HCl to 2 mL of a 3×10^-4 M SmCl3 carrier solution. Appropriate ligand solutions were then prepared in deionized water. The 1:1 ligand/metal complexes were then prepared by combining the ligands (dissolved in 100-500 μL of deionized water) with 2 mL of the stock ^153 SmCl3 solution, followed by through mixing to give an acidic solution (pH=2). The pH of the solution was then raised to 7.0 using 0.1N NaOH. The percent metal as a complex was then determined by passing a sample of the complex solution through a Sephadex™ G-50 column, eluting with 4:1 saline ([…]) and collecting 2×3 mL fractions. The amount of radioactivity in the combined elutions was then compared with that left on the resin (non-complexed metal is retained on the resin). […]
A solution of the ligand of Example 1 was prepared by dissolving 3.8 mg of ligand/0.517 mL of deionized water (pH=2). […] After thorough mixing, the percent metal as a complex was determined by passing a sample of the complex solution through a Sephadex™ column, eluting with 4:1 saline (0.85% NaCl/NH4 OH), and collecting 2×3 mL fractions. The amount of radioactivity in the combined elutions was then compared with that left on the resin. […] By this method complexation was determined to be 98%. […] The pH stability was then determined using the General Procedure above.

[3] = patients with metastatic bone lesions; cited from earlier work
[4] = Sprague Dawley rats, 30 min, average
[5] = Sprague Dawley rats, tail vein, 30 min, average
[6] = rats, 30 min, % dose/G printed for bone to blood ratio

Compound	bone to blood ratio ([1]; % dose/G, rats, 30 min)	% injected dose in bone [1, 4] [%]	% injected dose in kidney [1, 5] [%]	% injected dose in liver [1, 5] [%]	% injected dose in blood [1, 5] [%]	% injected dose in muscle [1, 5] [%]	bone to liver ratio [1, 6]	bone to muscle ratio [1, 6]	bone localization ([1]; 5:1 ligand to metal ratio)	% injected dose in spleen [1, 5] [%]	percent metal as a complex (complexation) [2] [%]	blood levels [3]	lesion to normal bone ratios [3]
O=P(O)(O)CN1CCN(CP(=O)(O)O)Cc2cccc(n2)CN(CP(=O)(O)O)CC1.[90Y] [^90 Y-PCTMP, complex of ^90 Y-3,6,9,15-tetraazabicyclo[9.3.1]pentadeca-1(15),11,13-triene-3,6,9-trimethylenephosphonic acid]	140	29	0.36	0.21	0.18	0.42	76	400					
O=P(O)(O)CN1CCN(CP(=O)(O)O)Cc2cccc(n2)CN(CP(=O)(O)O)CC1.[153Sm] [^153 Sm-PCTMP, complex of ^153 Sm-3,6,9,15-tetraazabicyclo[9.3.1]pentadeca-1(15),11,13-triene-3,6,9-trimethylenephosphonic acid]		60	0.38	2.80	0.29	0.40			about 60%	0.16	98		
O=P(O)(O)CN1CCN(CP(=O)(O)O)Cc2cccc(n2)CN(CP(=O)(O)O)CC1.[166Ho] [^166 Ho-PCTMP, complex of ^166 Ho-3,6,9,15-tetraazabicyclo[9.3.1]pentadeca-1(15),11,13-triene-3,6,9-trimethylenephosphonic acid]		43	0.33	3.55	0.12	0.34							
Strontium-89												high	low
